Laboratory results taken from patent publication US8518956B2, “1-(1-(2-ethoxyethyl)-3-ethyl-7-(4-methylpyridin-2-ylamino)-1H-pyrazolo[4,3-d]pyrimidin-5-yl) piperidine-4-carboxylic acid and salts thereof” (priority 2005, dated 2013).
Like-named read-outs stand apart in the source and are kept apart here.

Legend:
[1] = test system: spontaneously hypertensive rats (SHR); experiment: Method 12: SHR Rat Combination Therapy, blood pressure by telemetry; type: in vivo; settings: 0.007% in drinking water, day 7
PDE5 enzyme = target: T1, PDE5 enzyme (Homo sapiens, UniProt O76074); experiment: Method 1: Human Platelet PDE5 Enzyme Inhibition Scintillation Proximity Assay; type: biochemical; settings: METHOD 1: PDE5 IC50, Table B, WO2004096810 examples
T1 construct: The PDE5 enzyme isolated from human platelets; from tissue; host or cells: human platelets
Summary of the method: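 Human platelet PDE5 hydrolysing 500 nM cGMP (3:1 unlabelled:[3H]) in Tris-HCl pH 7.4 with MgCl2 and BSA, 60 min at 30 °C. Reaction stopped with yttrium silicate SPA beads and [3H]GMP counted by scintillation. IC50 from sigmoid curves over a 10-point half-log dilution series, in duplicate.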

PDE6 enzyme = settings: read-out: METHOD 2: PDE6 IC50; Table F, WO2004096810 examples
Description: Method 2: Human Retina PDE6 Enzyme Inhibition Scintillation Proximity Assay (SPA)
The inhibition of PDE6 enzyme activity by a test compound can be measured in accordance with the in vitro assay of Method 1, but instead using semi-purified PDE6 enzyme isolated from human, bovine or canine retina in place of PDE5 enzyme. […] [3H]GMP binds to yttrium silicate SPA beads and is detected by scintillation counting. • PDE6 Purification: PDE6 can be isolated and purified from the following: Soluble rod PDE6/Rod Outer Segment PDE6 from Bovine eyes (Charles River Ltd, France); Cone PDE6 from Canine eyes (LAS); or Soluble rod and Cone PDE6 from Human eyes (I.I.A.M.).
While supporting the eye with the cornea uppermost, make a small incision through the conjunctiva below the level of the iris. The incision should be sufficient to allow the humor to escape through the cut. Using fine scissors, cut around the cornea to enable it to be lifted off as a flap. Using a small hook, engage the lens and gently pull it out of orbit, taking care not to pull out the retina at the same time. Allow the retina to drop down of its own accord to the base of the orbit.
Lift the retina with care and locate the optic nerve. Cut through the optic nerve and transfer the retina to a small dish containing a few ml of homogenisation buffer. Gently float the retina out on the surface of the buffer and remove any obvious pigmented material from the iris. Place the retina in a second dish with clean buffer to remove last traces of pigment and then transfer to a 50 ml Corning Costar centrifuge tube (Sigma) and keep on ice. • PDE6 Isolation and Purification from Retina: Allow 2 mls of the homogenisation buffer per bovine retina and 1 ml per retina for dog and human. Homogenise using hand-held homogeniser 3×5 second bursts cooling on ice between each burst. Filter homogenate through two layers of surgical gauze. Spin at 100,000 g for 60 minutes at 4° C. […] Run through FPLC (Pharmacia FPLC LKB/FRAC-100, Pharmacia) or aliquot and store in liquid nitrogen as needed. Method 2A: Alternative Human Retina PDE6 Enzyme Inhibition Scintillation Proximity Assay (SPA)

PDE11 enzyme = target: T2, PDE11 enzyme (Homo sapiens, UniProt Q9HCR9, DUP921-921); experiment: Method 3: Human Recombinant PDE11 Enzyme Inhibition Scintillation Proximity Assay (SPA); type: biochemical; settings: WO2004096810 examples
T2 construct: FLAG (N); made in house; host or cells: Sf9 insect cells (baculovirus, pFastBac)
Method: Method 3: Human Recombinant PDE11 Enzyme Inhibition Scintillation Proximity Assay (SPA)
PDE11 Expression and Purification:
Incubate at 27° C. with 220 rpm shaking for 48 hours. Harvest the infected cells by pelleting at 2000 rpm for 10 minutes at 4° C. Store the infected cell pellet at −80° C. until ready for purification. Resuspend the thawed cell pellets to 1×10^7 cells/ml (=20 ml buffer consisting of 20 mM Hepes (pH7.2), 1 mM EDTA, 20 mM sucrose, 150 mM NaCl and protease inhibitor tablets). Mix thoroughly and allow to stand on ice for 10 minutes. Sonicate for 5×5 seconds, on ice. Spin the mixture at 12,000 rpm for 10 minutes at 4° C. in SS34. Store the insoluble pellet at −80° C., and proceed to the purification of the soluble material. • (b) Purification: Prepare the column (1.0 cm diameter, Kontes) by rinsing the empty column twice with TBS. Then mix beads (Anti-FLAG M2 Agarose, Sigma) with TBS and add to the column—allow the beads to settle. Wash the column with 3 column volumes of 0.1M glycine (pH3.5). […] Apply the extract to the column and allow the extract to enter by gravity flow. Reapply the flow-through. Wash the column with 15 column volumes of TBS. Elute the protein with 5×1 ml aliquots of FLAG peptide (Sigma) (i.e., 100 ug/ml in TBS). Elute the remaining protein with 1 ml 0.1M glycine, and immediately add 25 ul 1M Tris pH8 to neutralize. Method 3A: Alternative Human Recombinant PDE11 Enzyme Inhibition Scintillation Proximity Assay (SPA)

[2] = Table F, read-out: METHOD 3: PDE11 IC50

T2 sequence (Q9HCR9 with tags, fused parts or gaps DUP921-921 limits assumed): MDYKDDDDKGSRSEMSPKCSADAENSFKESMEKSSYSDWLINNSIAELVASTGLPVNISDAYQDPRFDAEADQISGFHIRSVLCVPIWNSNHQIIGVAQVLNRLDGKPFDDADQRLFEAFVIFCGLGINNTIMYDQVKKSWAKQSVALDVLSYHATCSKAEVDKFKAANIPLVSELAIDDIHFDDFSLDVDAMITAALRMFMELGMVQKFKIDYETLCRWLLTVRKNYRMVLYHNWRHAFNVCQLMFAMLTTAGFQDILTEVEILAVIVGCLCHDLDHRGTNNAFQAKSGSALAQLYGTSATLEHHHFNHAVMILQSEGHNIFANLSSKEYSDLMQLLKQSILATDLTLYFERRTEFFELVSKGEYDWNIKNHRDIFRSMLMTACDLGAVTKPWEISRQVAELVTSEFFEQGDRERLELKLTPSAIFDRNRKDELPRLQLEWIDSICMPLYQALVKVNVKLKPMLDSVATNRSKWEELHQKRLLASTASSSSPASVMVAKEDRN

Row | SMILES | maximal reduction of blood pressure from pre-dose baseline in comparison to vehicle treated group [1] [mmHg] | IC50 (PDE5 enzyme) [nM] | IC50 (PDE6 enzyme) [nM] | IC50 (PDE11 enzyme; [2]) [nM] | IC50 (PDE11 enzyme; METHOD 3: PDE11 IC50, Table F) [nM]
1 | CCOC(=O)[C@H](CCc1ccccc1)N[C@@H](C)C(=O)N1CCC[C@H]1C(=O)O [Enalapril, enalapril] | 22±2 |  |  |  | 
2 | Cc1nccc(Nc2nc(N3CCN[C@H](C)C3)nc3c(C)nn(CCOCC(F)(F)F)c23)n1 [WO2004096810 Example 246] |  | 4.46 | 657 | 4320 | 
3 | CCc1nn(CCOCC(F)(F)F)c2c(Nc3ccnnc3)nc(N3CCN[C@H](C)C3)nc12 [WO2004096810 Example 248] |  | 0.3 | 9.92 | 316 | 
4 | CCc1nn(CCOCC(F)(F)F)c2c(Nc3ccncn3)nc(N3CCN[C@H](C)C3)nc12 [WO2004096810 Example 249] |  | 0.16 | 5.1 | 1190 | 
5 | CCc1nn(CCOCC(F)(F)F)c2c(Nc3ccnc(C)n3)nc(N3CCN[C@H](C)C3)nc12 [WO2004096810 Example 250] |  | 2.37 | 221 | 3120 | 
6 | CCc1nn(CCOCC(F)(F)F)c2c(Nc3cc(C)ncn3)nc(N(C)C3CCN(C)CC3)nc12 [WO2004096810 Example 251] |  | 0.25 | 9.51 |  | 1860
7 | COCc1nn(CCOCC(F)(F)F)c2c(Nc3cccc(C)n3)nc(N3CCN[C@H](C)C3)nc12 [WO2004096810 Example 252] |  | 2.81 | 307 | 874 | 
8 | COCc1nn(CCOCC(F)(F)F)c2c(Nc3cccc(C)c3)nc(N3CCN[C@H](C)C3)nc12 [WO2004096810 Example 253] |  | 1.2 | 100 | 312 | 
9 | CCN(C)c1nc(Nc2ccc(=O)n(C)c2)c2c(n1)c(COC)nn2CCOCC(F)(F)F [WO2004096810 Example 254] |  | 0.59 | 188 | 2880 | 
10 | CCOCc1nn(CCOCC(F)(F)F)c2c(Nc3cccc(C)n3)nc(N3CCN[C@H](C)C3)nc12 [WO2004096810 Example 255] |  | 1.43 | 207 | 937 | 
11 | CCOCc1nn(CCOCC(F)(F)F)c2c(Nc3cc(C)ccn3)nc(N3CCN[C@H](C)C3)nc12 [WO2004096810 Example 256] |  | 3.82 | 275 | 913 | 
12 | Cc1cccc(Nc2nc(N3CCNCC3)nc3c(C)nn(CCOCC(F)(F)F)c23)n1 [WO2004096810 Example 258] |  | 1.99 | 198 | 215 | 
13 | COCc1nn(CCOCC(F)(F)F)c2c(Nc3cc(C)ccn3)nc(N3CC4CCC(C3)N4)nc12 [WO2004096810 Example 259] |  | 3.74 | 204 |  | 199
